The source of these data is patent publication US8088806B2 (Achillion Pharmaceuticals, Inc., priority 2005, dated 2012).

The test concerns HCV replicon. The test is described as follows: Replicon based assay of HCV replication inhibition (NPT ELISA). It counts as cell-based, Hepatitis C virus. The settings on record: Hepatitis C virus, replicon based assay of HCV replication inhibition; Table II; read-out: Activity. The procedure, abridged: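 Huh-7 cells carrying a bicistronic HCV replicon (neo, EMCV-IRES-driven NS3–NS5B) treated overnight after seeding with usually 6 concentrations, 10 to 0.03 micromolar, for three days at 37° C without G418. Replication read as NPT level by captured ELISA; matched-DMSO wells and interferon alpha as controls.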
For orientation: A replicon is a self-replicating genome or part of one, used to study replication in cells.
Consider `CCCCCCCOc1ccc(Nc2nc(-c3ccc(F)cc3F)cs2)cc1` [compound 423, 4-(2,4-difluorophenyl)-N-(4-(heptyloxy)phenyl)thiazol-2-amine], for which the EC50 was less than 1 µM.
`CCCCCCCOc1ccc(Nc2nc(-c3ccc(OC)cc3)cs2)cc1` [compound 424, N-(4-(heptyloxy)phenyl)-4-(4-methoxyphenyl)thiazol-2-amine]: the EC50 is less than 1 µM.
As for `CCCCCCCOc1ccc(Nc2nc(-c3ccc(OCC(=O)O)cc3)c(C)s2)cc1` [compound 425, 2-(4-(2-(4-(heptyloxy)phenylamino)-5-methylthiazol-4-yl)phenoxy)acetic acid], the figure is less than 1 µM.
Turning to `CCCCCOc1ccc(Nc2nc(-c3ccc(C(=O)O)cc3)cs2)cc1F` [compound 426, 4-(2-(3-fluoro-4-(pentyloxy)phenylamino)thia-zol-4-yl)benzoic acid], the EC50 was 1 to 10 µM.
As to `CCCCCOc1ccc(Nc2nc(CC)cs2)cc1F` [compound 427, 4-ethyl-N-(3-fluoro-4-(pentyloxy)phenyl)thiazol-2-amine], the EC50 was in the range of 1 to 10 µM.
As for `COc1ccc(Cl)cc1Nc1nc(-c2cccnc2)cs1` [compound 428, N-(5-chloro-2-methoxyphenyl)-4-(pyridin-3-yl)thiazol-2-amine], the figure is 1 to 10 µM; as for `CC(=O)Nc1ccc(Nc2nc(-c3cccs3)cs2)cc1` [compound 429, N-(4-(4-(thiophen-2-yl)thiazol-2-ylamino)phenyl)acetamide], more than 10 µM.
`CCCCCOc1c(F)cc(Nc2nc(-c3cccnc3)cs2)cc1F` [compound 430, N-(3,5-difluoro-4-(pentyloxy)phenyl)-4-(pyridin-3-yl)thiazol-2-amine]: the EC50 is less than 1 µM.
Regarding `CCCCCOc1ccc(Nc2nc(-c3cc(OC)ccc3OC)cs2)cc1C(F)(F)F` [compound 431, N-(3-(trifluoromethyl)-4-(pentyloxy)phenyl)-4-(2,5-dimethoxyphenyl)thiazol-2-amine], the EC50 lay in the range of 1 to 10 µM.
Take `CCCCCCCOc1ccc(Nc2nc(-c3cc(OC)ccc3OC)cs2)cc1` [compound 432, N-(4-(heptyloxy)phenyl)-4-(2,5-dimethoxyphenyl)thiazol-2-amine]: the EC50 is less than 1 µM.
For `CCCCCOc1ccc(Nc2nc(-c3cc(OC)ccc3OC)cs2)cc1F` [compound 433, N-(3-fluoro-4-(pentyloxy)phenyl)-4-(2,5-dimethoxyphenyl)thiazol-2-amine], the EC50 was less than 1 µM.
As for `CCCCCOc1ccc(Nc2nc(-c3cccc(O)c3)cs2)cc1C(F)(F)F` [compound 434, 3-(2-(3-(trifluoromethyl)-4-(pentyloxy)phenylmino)thia-zol-4-yl)phenol], the figure is 1 to 10 µM; as for `CCCCCCCOc1ccc(Nc2nc(-c3cccc(O)c3)cs2)cc1` [compound 435, 3-(2-(4-(heptyloxy)phenylamino)thia-zol-4-yl)phenol], less than 1 µM; as for `CCCCCCCCOc1ccc(Nc2nc(-c3cccc(O)c3)cs2)cc1` [compound 436, 3-(2-(4-(octyloxy)phenylamino)thia-zol-4-yl)phenol], less than 1 µM.
As for `CCCCCOc1ccc(Nc2nc(-c3ccc(NC(C)=O)cc3)cs2)cc1C(F)(F)F` [compound 437, N-(4-(2-(3-(trifluoromethyl)-4-(pentyloxy)phenylamino)thia-zol-4-yl)phenyl)acetamide], the EC50 lay in the range of 1 to 10 µM.
As for `CCCCCCCOc1ccc(Nc2nc(-c3ccc(NC(C)=O)cc3)cs2)cc1` [compound 438, N-(4-(2-(4-(heptyloxy)phenylamino)thia-zol-4-yl)phenyl)acetamide], the figure is less than 1 µM; as for `CCCCCOc1ccc(Nc2nc(-c3ccc(NC(C)=O)cc3)cs2)cc1F` [compound 439, N-(4-(2-(3-fluoro-4-(pentyloxy)phenylamino)thia-zol-4-yl)phenyl)acetamide], less than 1 µM.
As for `COc1ccc(OC)c(Nc2ncc(-c3cccs3)s2)c1` [compound 440, N-(2,5-dimethoxyphenyl)-5-(thiophen-2-yl)thiazol-2-amine], the figure is 1 to 10 µM.
As for `CCCCCOc1ccc(Nc2nc(-c3cccnc3C)cs2)cc1C(F)(F)F` [compound 441, N-(3-(trifluoromethyl)-4-(pentyloxy)phenyl)-4-(2-methylpyridin-3-yl)thiazol-2-amine], the figure is less than 1 µM; as for `CCCCCCCCOc1ccc(Nc2nc(-c3cccnc3C)cs2)cc1` [compound 442, 4-(2-methylpyridin-3-yl)-N-(4-(octyloxy)phenyl)thiazol-2-amine], less than 1 µM; as for `CCCCCOc1ccc(Nc2nc(-c3cccnc3)c(C(=O)OC)s2)cc1C(F)(F)F` [compound 443, methyl 2-(3-(trifluoromethyl)-4-(pentyloxy)phenylamino)-4-(pyridin-3-yl)thiazol-5-carboxylate], less than 1 µM.
Regarding `CCCCCCCCOc1ccc(Nc2nc(-c3cccnc3)c(C(=O)OC)s2)cc1` [compound 444, meethyl 2-(4-(octyloxy)pheenylamino)-4-(pyridin-3-yl)thiazol-5-carboxylate], the EC50 fell in the range of 1 to 10 µM.
As for `CCCCCOc1ccc(Nc2nc(-c3c(C)cc(C)nc3C)cs2)cc1C(F)(F)F` [compound 445, N-(3-(trifluoromethyl)-4-(pentyloxy)phenyl)-4-(2,4,6-trimethylpyridin-3-yl)thiazol-2-amine], the figure is more than 10 µM.
Consider `CCCCCCCOc1ccc(Nc2nc(-c3c(C)cc(C)nc3C)cs2)cc1` [compound 446, N-(4-(heptyloxy)phenyl)-4-(2,4,6-trimethylpyridin-3-yl)thiazol-2-amine], for which the EC50 is more than 10 µM.
As for `CCCCCCCCOc1ccc(Nc2nc(-c3c(C)cc(C)nc3C)cs2)cc1` [compound 447, 4-(2,4,6-trimethylpyridin-3-yl)-N-(4-(octyloxy)phenyl)thiazol-2-amine], the figure is more than 10 µM; as for `CCCCCCCOc1ccc(Nc2nc(-c3ccc(O)c(C(N)=O)c3)cs2)cc1` [compound 448, 5-(2-(4-- (heptyloxy)phenylamino)thia-zol-4-yl)-2-hydroxybenzamide], less than 1 µM; as for `CCCCCCCCOc1ccc(Nc2nc(-c3ccc(O)c(C(N)=O)c3)cs2)cc1` [compound 449, 5-(2-(4-(octyloxy)phenylamino)thia-zol-4-yl)-2-hydroxybenzamide], less than 1 µM.
In the case of `CCCCCOc1ccc(Nc2nc(-c3ccc(N4CCCC4)nc3)cs2)cc1C(F)(F)F` [compound 450, N-(3-(trifluoromethyl)-4-(pentyloxy)phenyl)-4-(6-(pyrrolidin-1-yl)pyridin-3-yl)thiazol-2-amine], the EC50 is less than 1 µM.
As for `CCCCCCCc1ccc(C(=O)Nc2nc(-c3ccc(Cl)cc3)cs2)cc1` [compound 451, N-(4-(4-chlorophenyl)thiazol-2-yl)-4-heptylbenzamide], the figure is less than 1 µM.
As for `CCCCCCOc1ccc(Nc2nc(-c3ccc(F)cc3)cs2)cc1` [compound 452, 4-(4-fluorophenyl)-N-(4-(hexyloxy)phenyl)thiazol-2-amine], the figure is less than 1 µM.
For `Cc1ccc(-c2csc(Nc3ccc(OC4CCCC4)c(C(F)(F)F)c3)n2)cn1` [compound 453, N-(4-(cyclopentyloxy)-3-(trifluoromethyl)phenyl)-4-(6-methylpyridin-3-yl)thiazol-2-amine], the EC50 is less than 1 µM.
As for `CCCCCN(C)c1ccc(Nc2nc(-c3ccc(C)nc3)cs2)cc1C(F)(F)F` [compound 454, 2-(trifluoromethyl)-N^1-methyl-N^4-(4-(6-methylpyridin-3-yl)thiazol-2-yl)-N^1-pentylbenzene-1,4-diamine], the figure is less than 1 µM; as for `CCCCCCOc1ccc(Nc2nc(-c3ccc(C)nc3)cs2)cc1` [compound 455, N-(4-(hexyloxy)phenyl)-4-(6-methylpyridin-3-yl)thiazol-2-amine], less than 1 µM; as for `CCCCCCCCOc1ccc(Nc2nc(-c3ccc(C(=O)N(C)C)nc3)cs2)cc1` [compound 456, 5-(2-(4-(octyloxy)phenylamino)thia-zol-4-yl)-N,N-dimethylpyridine-2-carboxamide], 1 to 10 µM.
For `CCCCCCCOc1ccc(Nc2nc(-c3ccc(C(=O)N(C)C)nc3)cs2)cc1` [compound 457, 5-(2-(4-(heptyloxy)phenylamino)thia-zol-4-yl)-N,N-dimethylpyridine-2-carboxamide], the EC50 lay in the range of 1 to 10 µM.
As for `CCCCCCCCOc1ccc(Nc2nc(-c3ccc(O)cc3)cs2)cc1` [compound 458, 4-(2-(4-(octyloxy)phenylamino)thia-zol-4-yl)phenol], the figure is less than 1 µM; as for `CCCCCOc1ccc(Nc2nc(-c3ccc(Br)nc3)cs2)cc1C(F)(F)F` [compound 459, 4-(6-bromopyridin-3-yl)-N-(3-(trifluoromethyl)-4-(pentyloxy)phenyl)thiazol-2-amine], less than 1 µM; as for `CCCCCOc1ccc(Nc2nc(-c3ccc(Cl)nc3)cs2)cc1C(F)(F)F` [compound 460, 4-(6-chloropyridin-3-yl)-N-(3-(trifluoromethyl)-4-(pentyloxy)phenyl)thiazol-2-amine], less than 1 µM.
As for `CCCCCCCCOc1ccc(Nc2nc(-c3ccc(OCC(=O)OCC)cc3)cs2)cc1` [compound 461, ethyl 2-(4-(2-(4-(octyloxy)phenylamino)thia-zol-4-yl)phenoxy)acetate], the figure is less than 1 µM.
As for `CCCCCCCCOc1ccc(Nc2nc(-c3ccc(OCC(=O)O)cc3)cs2)cc1` [compound 462, 2-(4-(2-(4-(octyloxy)phenylamino)thia-zol-4-yl)phenoxy)acetic acid], the figure is less than 1 µM.
As for `CCCCCCCCOc1ccc(Nc2nc(-c3ccc(NC)nc3)cs2)cc1` [compound 463, 5-(2-(4-(octyloxy)phenylamino)thia-zol-4-yl)-N-meethylpyridin-2-amine], the EC50 is less than 1 µM.
For `CCCCCCCCOc1ccc(Nc2nc(O)cs2)cc1` [compound 464, 2-(4-(octyloxy)phenylamino)thia-zol-4-ol], the EC50 was in the range of 1 to 10 µM.
As for `CC(=O)OCCCCCCN(C)c1ccc(Nc2nc(-c3cccnc3)cs2)cc1C(F)(F)F` [compound 465], the figure is 1 to 10 µM.
